Patent US6096732A, “Steroid esters, process for their production and their pharmaceutical use” (Schering AG, priority 1996, dated 2000)

Columns and labels:
[1] = assay type: physicochemical
Procedure: Studies on Hydrolytic Stability of the Esters According to the Invention
The hydrolytic stability of the esters under strongly basic conditions can be used to assess whether the compounds have adequate stability under physiological conditions.
In each case, 10 mg of compounds 1, 3 and 4 was dissolved at 23° C. in 10 ml of dioxane and mixed with 1 ml of a 1N aqueous sodium hydroxide solution. In each case, 11 samples were drawn, acidified to pH 6 and the ester:alcohol ratio was determined per HPLC. In the graphic visualization,the portion of ester is depicted in percent as a function of the saponification period in hours.

[2] = test system: human, tamoxifen-resistant ZR-75 breast cancer; assay: Tumor-inhibiting action on human, tamoxifen-resistant ZR-75 breast cancer in nude mice; assay type: in vivo; conditions: s.c., 8 weeks, vs. untreated control; graph only
Procedure: Breast cancer cell line ZR-75 is an estrogen- and progesterone receptor-positive human line, which can be transplanted serially in the thymic aplastic nude mouse. […] An underline that is used here developed a tamoxifen resistance after a prolonged treatment period.
Female nude/nude mice, 4 weeks old.
Formulation and Administration of Test Substances:
The test substances are dissolved in benzyl benzoate and castor oil (1+4), and the one-time dose is administered at a volume of 0.1 ml s.c. Treatment begins about 7 weeks after implantation (treatment of established tumors). The treatment time is at most 10 weeks.
The tumor fragments of several donor animals are implanted in the animals s.c. on both sides in the flanks. On the day of implantation and on day 60, all animals are implanted with a tamoxifen-releasing pellet (5 mg).
The mice are randomized 7 weeks after implantation of the tumors, and the treatment is begun and carried out for 8 weeks.
Tumor growth is determined by determination of the tumor surface area using a sliding gauge. The tumor surface area is calculated from the product of the longest diameter of the tumor and the diameter that is perpendicular to said longest diameter. At the end of the test, the animals are killed, the tumors are prepared outside and weighed.

[3] = test system: NMU-induced breast tumor of rats; assay: Influence of the tumor growth in N-Methyl-N-nitrosourea (NMU) model in rats; assay type: in vivo, rat (Sprague-Dawley); conditions: p.o., 6 times per week, various dosages; vs. reference compound 3
Procedure: Influence of the Tumor Growth in N-Methyl-N-nitrosourea (NMU)--Model in Rats
The growth of the NUM-induced breast tumor of rats is largely dependent on estrogens and gestagens and less on prolactin. Estrogen and progesterone antagonists result in inhibiting tumor growth.
Female rats (Sprague-Dawley), 55 (±3) days old; at least 9 animals per group.
The animals receive 50 mg/kg of NMU on a one-time basis. Then, the animals are checked once a week by palpation for tumor development. About 6 to 8 weeks after NMU treatment, one or more tumors develop per animal. At a minimum size of 150 mm^2 /tumor/animal, treatment (6 times per week) begins with the test substance, the determination of body weight and tumor size (with the aid of a sliding gauge; once per week).
The results for compound 1 are graphically depicted in the following figures for various dosages in each case in comparison to the untreated control, an ovariectomy group as well as reference compound 3, (Z)-6'-(4-cyanophenyl)-9,11α-dihydro-17β-hydroxy-17α-[3-(1-oxo-2-methylpropoxy)-1-propenyl]-4'H-naphtho[3',2',1':10,9,11]estr-4-en-3-one. […] This is surprising because of the only slight structural differences. [drawing 5] Tumor-Inhibiting Action on the Hormone-Sensitive Human Breast Cancer Cell Line ZR-75.

[4] = assay type: physicochemical; remark: listed apart in the source
Procedure: Solubility Studies of the Esters that are Mentioned in Examples 1 to 6
In the following table, the solubility of compounds 1 to 6 is depicted in comparison to unesterified reference compound 1 (Z)-6'-(4-cyanophenyl)-9,11α-dihydro-17β-hydroxy-17α-(3-hydroxy-1-propenyl)-4'H-naphtho[3',2',1':10,9,11]estra-4-en-3-one (Example 1 in DE-A 4216003). For solubility, the temperature is indicated in °C., in which 50 mg of substance is dissolved in 1 ml of a 1:4 benzyl benzoate/castor oil mixture.

[5] = test system: breast cancer cell line ZR-75; conditions: standard treatment; cited from earlier work

SMILES	stability compared to reference compound 3 [1]	stability under strongly basic conditions [1]	Solubility (temperature at which 50 mg of substance is dissolved in 1 ml) [4] [°C]	also measured
CC(C)CC(=O)OC/C=C\[C@]1(O)CC[C@H]2[C@@H]3CCC4=CC(=O)CC[C@@]45Cc4cc(-c6ccc(C#N)cc6)ccc4[C@@H](C[C@@]21C)[C@@H]35 [Compound 1, (Z)-6'-(4-Cyanophenyl)-9,11α-dihydro-17β-hydroxy-17α-[3-(1-oxo-3-methylbutoxy)-1-propenyl]-4'H-naphtho[3',2',1':10,9,11]estr-4-en-3-one]	significantly improved compared to reference compound 3	very good stability	50	inhibition of the course of growth of the tumors [2]: inhibition of the course of growth of the tumors; tumor-inhibiting action [3]: tumor-inhibiting action that is superior to that of reference compound 3
CC(C)C(=O)OCC/C=C\[C@]1(O)CC[C@H]2[C@@H]3CCC4=CC(=O)CC[C@@]45Cc4cc(-c6ccc(C#N)cc6)ccc4[C@@H](C[C@@]21C)[C@@H]35 [Compound 2, (Z)-6'-(4-Cyanophenyl)-9,11α-dihydro-17β-hydroxy-17α-[4-(1-oxo-2-methylpropoxy)-1-butenyl]-4'H-naphtho[3',2',1':10,9,11]estr-4-en-3-one]	–	–	23	–
CC(C)CC(=O)OCC/C=C\[C@]1(O)CC[C@H]2[C@@H]3CCC4=CC(=O)CC[C@@]45Cc4cc(-c6ccc(C#N)cc6)ccc4[C@@H](C[C@@]21C)[C@@H]35 [Compound 3, (Z)-6'-(4-cyanophenyl)-9,11α-dihydro-17β-hydroxy-17α-[4-(1-oxo-3-methylbutoxy)-1-butenyl]-4'H-naphtho[3',2',1':10,9,11]estr-4-en-3-one]	significantly improved compared to reference compound 3	very good stability	23	–
CC(C)CC(=O)OCC/C=C\[C@]1(O)CC[C@H]2[C@@H]3CCC4=CC(=O)CC[C@@]45Cc4cc(-c6ccc(F)cc6)ccc4[C@@H](C[C@@]21C)[C@@H]35 [Compound 4, (Z)-9,11α-dihydro-6'-(4-fluorophenyl)-17β-hydroxy-17α-[4-(1-oxo-3-methylbutoxy)-1-butenyl]-4'H-naphtho[3',2',1':10,9,11]estr-4-en-3-one]	significantly improved compared to reference compound 3	very good stability	50	–
CC(C)CC(=O)OC/C=C\[C@]1(O)C=C[C@H]2[C@@H]3CCC4=CC(=O)CC[C@@]45Cc4cc(-c6ccc(C#N)cc6)ccc4[C@@H](C[C@@]21C)[C@@H]35 [Compound 5, (Z)-6'-(4-Cyanophenyl)-9,11α-dihydro-17β-hydroxy-17α-[3-(1-oxo-3-methylbutoxy)-1-propenyl]-4'H-naphtho[3',2',1':10,9,11]estra-4,15-dien-3-one]	–	–	23	–
CC(C)C(=O)OC/C=C\[C@]1(O)C=C[C@H]2[C@@H]3CCC4=CC(=O)CC[C@@]45Cc4cc(-c6ccc(C#N)cc6)ccc4[C@@H](C[C@@]21C)[C@@H]35 [Compound 6, (Z)-6'-(4-Cyanophenyl)-9,11α-dihydro-17β-hydroxy-17α-[3-(1-oxo-2-methylpropoxy)-1-propenyl]-4'H-naphtho[3',2',1':10,9,11]estra-4,15-dien-3-one]	–	–	< 50	–
C[C@]12C[C@@H]3c4ccc(-c5ccc(C#N)cc5)cc4C[C@]45CCC(=O)C=C4CC[C@H]([C@H]35)[C@@H]1CC[C@@]2(O)/C=C\CO [Reference Compound 1, (Z)-6'-(4-cyanophenyl)-9,11α-dihydro-17β-hydroxy-17α-(3-hydroxy-1-propenyl)-4'H-naphtho[3',2',1':10,9,11]estra-4-en-3-one, reference compound]	–	–	> 100	–
CC(C)C(=O)OC/C=C\[C@]1(O)CC[C@H]2[C@@H]3CCC4=CC(=O)CC[C@@]45Cc4cc(-c6ccc(C#N)cc6)ccc4[C@@H](C[C@@]21C)[C@@H]35 [Reference Compound 3, (Z)-6'-(4-cyanophenyl)-9,11α-dihydro-17β-hydroxy-17α-[3-(1-oxo-2-methylpropoxy)-1-propenyl]-4'H-naphtho[3',2',1':10,9,11]estr-4-en-3-one, reference compound]	–	–	100	–
CC/C(=C(\c1ccccc1)c1ccc(OCCN(C)C)cc1)c1ccccc1 [tamoxifen]	–	–	–	response of ZR-75 to tamoxifen [5]: inhibiting growth
